# Data taken from patent publication US20200345725A1, “Methods and Compositions for Treating Cancer” (Omeros Corporation, priority 2019, published 2020).
# pEC50: −log10 of the molar value. Where “and” joins values, the source holds several entries; their conditions need not be identical. Equal values may be shown once. Marks after values point to notes of the source that are not given here.
# What was measured:
# human PBMCs = assay: Th1 cytokines in supernatants of stimulated human PBMC, GPR174 inhibitor with adenosine pathway inhibitors (Examples 15, 18-22); type: cell-based; conditions: for IFN-γ fold increase (FIG. 44): Example 15; for IFN-γ, ratio relative to vehicle control (Veh column) / IL-2, ratio relative to vehicle control (Veh column) / TNF, ratio relative to vehicle control (Veh column): Cmpd 10 1, ZM 0.1, PBF 0.1, SCH 0.2 μM, ADA 0.75 μg/mL; for IFN-γ, ratio relative to vehicle control (MRS) / IL-2, ratio relative to vehicle control (MRS column) / TNF, ratio relative to vehicle control (MRS column): MRS-1754 1 μM added to the agent(s) of the label, label MRS = MRS alone
# Procedure, shortened: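 Human donor PBMCs (1×10^6 cells/well) were stimulated with 1 µg/mL anti-CD3 (UCHT1) plus 0.1 µg/mL anti-CD28 (CD28.2) for 24 h with test agents. IFN-γ, IL-2, TNF and GM-CSF in supernatants were measured by ELISA, Legendplex or MSD. Fold changes were compared by one-way ANOVA with Tukey correction.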
# GPR174 = GPR174 (Homo sapiens, UniProt Q9BXC1); assay: CRE-Luc reporter Gs signaling assay with GPR174; type: cell-based; set-up: host or cells: HEK293 or CHO cell lines (ATCC)
# [1] = 12 donors, Cmpd 10 1-2 μM, ZM 0.2-1 μM
# [2] = 12 donors, Cmpd 10 1-2 μM, ZM 0.2-1 μM, 24 h
# [3] = donor 1, 24 h, Cmp 10 2 μM alone
# [4] = donor 1, 24 h, Cmp 10 2 μM alone, listed as Cmp 10
# [5] = donor 1, SCH-58261 0.2 μM, alone (label SCH) or with Cmp 10 2 μM (label Cmp 10)
# [6] = donor 1, SCH-58261 0.6 μM, alone (label SCH) or with Cmp 10 2 μM (label Cmp 10)
# [7] = donor 1, SCH-58261 2 μM, alone (label SCH) or with Cmp 10 2 μM (label Cmp 10)
# [8] = donor 2, Cmpd 10 1 μM alone, listed as Cmpd 10
# [9] = donor 2, PBF-509 0.1 μM, alone (label PBF) or with Cmpd 10 1 μM (label Cmpd 10)
# [10] = donor 2, PBF-509 0.1 μM, alone (label PBF) or with Cmpd 10 1 μM (label Cmpd 10), listed as Cmpd 10
# [11] = donor 2, ZM-241385 0.2 μM, alone (label ZM) or with Cmpd 10 1 μM (label Cmpd 10)
# [12] = donor 2, ZM-241385 0.2 μM, alone (label ZM) or with Cmpd 10 1 μM (label Cmpd 10), listed as Cmpd 10
# [13] = donor 3, no MRS, listed as Cmpd 10
# [14] = donor 3, PBF-509 0.2 μM, alone (label PBF) or with Cmpd 10 1 μM (label Cmpd 10)
# [15] = donor 3, PBF-509 0.2 μM, alone (label PBF) or with Cmpd 10 1 μM (label Cmpd 10), listed as Cmpd 10
# [16] = donor 3, ZM-241385 0.2 μM, alone (label ZM) or with Cmpd 10 1 μM (label Cmpd 10)
# [17] = donor 3, ZM-241385 0.2 μM, alone (label ZM) or with Cmpd 10 1 μM (label Cmpd 10), listed as Cmpd 10
# [18] = donor 6, no MRS, listed as Cmpd 10
# [19] = donor 7, high and low concentrations, ZM 0.1 μM
# [20] = donor 7, no ZM, 0.3 μM (compound 20: 3 μM)
# [21] = donor 7, no ZM, 1 μM (compound 20: 10 μM)
# [22] = donor 7, with ZM-241385 0.1 μM, 0.3 μM (compound 20: 3 μM)
# [23] = donor 7, with ZM-241385 0.1 μM, 1 μM (compound 20: 10 μM), label ZM = ZM alone
# GPR174, sequence (Q9BXC1 whole entry): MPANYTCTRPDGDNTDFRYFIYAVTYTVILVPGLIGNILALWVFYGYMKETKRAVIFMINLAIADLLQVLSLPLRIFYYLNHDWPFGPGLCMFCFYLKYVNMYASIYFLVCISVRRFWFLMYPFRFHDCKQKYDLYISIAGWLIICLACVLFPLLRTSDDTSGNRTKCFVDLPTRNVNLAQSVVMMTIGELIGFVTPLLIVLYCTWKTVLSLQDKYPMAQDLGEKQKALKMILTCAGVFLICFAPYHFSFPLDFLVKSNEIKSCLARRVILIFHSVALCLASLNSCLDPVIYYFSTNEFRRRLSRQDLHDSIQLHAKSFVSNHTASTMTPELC
structure (smiles),measurement,setting,value
CC1CCN(c2cc(N3CCN(S(=O)(=O)c4ccccc4)CC3)c([N+](=O)[O-])cc2F)CC1 [compound 10],GM-CSF fold-change (FC) vs ZM alone,"human PBMCs; 9 donors, Cmpd 10 1-2 μM, ZM 0.2-1 μM",1.1 fold
same,GM-CSF mean fold-change (FC) vs vehicle,"human PBMCs; 9 donors, Cmpd 10 1-2 μM, ZM 0.2-1 μM, 24 h",1.4 fold
same,IFN-γ fold-change (FC) vs ZM alone,human PBMCs; [1],1.3 fold
same,IL-2 fold-change (FC) vs ZM alone,human PBMCs; [1],1.2 fold
same,TNF fold-change (FC) vs ZM alone,human PBMCs; [1],1.3 fold
same,IFN-γ mean fold-change (FC) vs vehicle,human PBMCs; [2],2.8 fold
same,IL-2 mean fold-change (FC) vs vehicle,human PBMCs; [2],1.7 fold
same,TNF mean fold-change (FC) vs vehicle,human PBMCs; [2],2.7 fold
same,IFN-γ fold increase (FIG. 44),"human PBMCs; 24 h, ZM241385 1 μM, alone (label ZM241385) or with compound 10 3 μM (label compound 10)",9.3 fold
same,IFN-γ fold increase (FIG. 44),"human PBMCs; 24 h, ZM241385 10 μM, alone (label ZM241385) or with compound 10 3 μM (label compound 10)",17.1 fold
same,IFN-γ fold increase (FIG. 44),"human PBMCs; 24 h, compound 10 3 μM alone",2.3 fold
same,IFN-γ fold-change relative to vehicle control,human PBMCs; [3],4.9 fold
same,IL-2 fold-change relative to vehicle control,human PBMCs; [3],no effect
same,TNF fold-change relative to vehicle control,human PBMCs; [3],4.2 fold
same,IFN-γ fold-change relative to vehicle control,human PBMCs; [4],4.9* fold
same,IL-2 fold-change relative to vehicle control,human PBMCs; [4],0.9 fold
same,TNF fold-change relative to vehicle control,human PBMCs; [4],4.2* fold
same,IFN-γ fold-change relative to vehicle control,human PBMCs; [5],11.8* fold
same,IL-2 fold-change relative to vehicle control,human PBMCs; [5],1.5* fold
same,TNF fold-change relative to vehicle control,human PBMCs; [5],14.2* fold
same,IFN-γ fold-change relative to vehicle control,human PBMCs; [6],11.3* fold
same,IL-2 fold-change relative to vehicle control,human PBMCs; [6],1.4* fold
same,TNF fold-change relative to vehicle control,human PBMCs; [6],15.9* fold
same,IFN-γ fold-change relative to vehicle control,human PBMCs; [7],11.0* fold
same,IL-2 fold-change relative to vehicle control,human PBMCs; [7],1.4* fold
same,TNF fold-change relative to vehicle control,human PBMCs; [7],14.7* fold
same,IFN-γ fold-change relative to vehicle control,"human PBMCs; donor 2, Cmpd 10 1 μM alone",1.6 fold
same,IL-2 fold-change relative to vehicle control,"human PBMCs; donor 2, Cmpd 10 1 μM alone",1.1 fold
same,TNF fold-change relative to vehicle control,"human PBMCs; donor 2, Cmpd 10 1 μM alone",1.5 fold
same,IFN-γ fold-change relative to vehicle control,human PBMCs; [8],1.6* fold
same,TNF fold-change relative to vehicle control,human PBMCs; [8],1.5* fold
same,IFN-γ fold-change relative to vehicle control,human PBMCs; [9],3.5 fold
same,IL-2 fold-change relative to vehicle control,human PBMCs; [9],2.0 fold
same,TNF fold-change relative to vehicle control,human PBMCs; [9],2.3 fold
same,IFN-γ fold-change relative to vehicle control,human PBMCs; [10],3.5* fold
same,IL-2 fold-change relative to vehicle control,human PBMCs; [10],2.0* fold
same,TNF fold-change relative to vehicle control,human PBMCs; [10],2.3* fold
same,IFN-γ fold-change relative to vehicle control,human PBMCs; [11],8.8 fold
same,IL-2 fold-change relative to vehicle control,human PBMCs; [11],2.6 fold
same,TNF fold-change relative to vehicle control,human PBMCs; [11],4.0 fold
same,IFN-γ fold-change relative to vehicle control,human PBMCs; [12],8.8* fold
same,IL-2 fold-change relative to vehicle control,human PBMCs; [12],2.6* fold
same,TNF fold-change relative to vehicle control,human PBMCs; [12],4.0* fold
same,"IFN-γ, MRS/Veh: ratio in the presence vs. the absence of MRS-1754",human PBMCs; donor 3,0.8*
same,"IL-2, MRS/Veh: ratio in the presence vs. the absence of MRS-1754",human PBMCs; donor 3,1.5*
same,"TNF, MRS/Veh: ratio in the presence vs. the absence of MRS-1754",human PBMCs; donor 3,1.1
same,"IFN-γ, ratio relative to vehicle control (Veh column)","human PBMCs; donor 3, no MRS",2.8 fold
same,"IL-2, ratio relative to vehicle control (Veh column)","human PBMCs; donor 3, no MRS",2.9 fold
same,"TNF, ratio relative to vehicle control (Veh column)","human PBMCs; donor 3, no MRS",4.1 fold
same,"IFN-γ, ratio relative to vehicle control (Veh column)",human PBMCs; [13],2.8* fold
same,"IL-2, ratio relative to vehicle control (Veh column)",human PBMCs; [13],2.9* fold
same,"TNF, ratio relative to vehicle control (Veh column)",human PBMCs; [13],4.1* fold
same,IFN-γ fold-change relative to vehicle control,"human PBMCs; donor 3, Cmpd 10 1 μM alone",1.2 fold
same,IL-2 fold-change relative to vehicle control,"human PBMCs; donor 3, Cmpd 10 1 μM alone",1.1 fold
same,TNF fold-change relative to vehicle control,"human PBMCs; donor 3, Cmpd 10 1 μM alone",1.5 fold
same,TNF fold-change relative to vehicle control,"human PBMCs; donor 3, Cmpd 10 1 μM alone, listed as Cmpd 10",1.5* fold
same,"IFN-γ, ratio relative to vehicle control (MRS)",human PBMCs; donor 3,2.2* fold
same,"IL-2, ratio relative to vehicle control (MRS column)",human PBMCs; donor 3,4.3 fold
same,"TNF, ratio relative to vehicle control (MRS column)",human PBMCs; donor 3,4.6* fold
same,"IL-2, ratio relative to vehicle control (MRS column)","human PBMCs; donor 3, listed as Cmpd 10",4.3* fold
same,IFN-γ fold-change relative to vehicle control,human PBMCs; [14],1.8 fold
same,IL-2 fold-change relative to vehicle control,human PBMCs; [14],1.6 fold
same,TNF fold-change relative to vehicle control,human PBMCs; [14],2.9 fold
same,IFN-γ fold-change relative to vehicle control,human PBMCs; [15],1.8* fold
same,IL-2 fold-change relative to vehicle control,human PBMCs; [15],1.6* fold
same,TNF fold-change relative to vehicle control,human PBMCs; [15],2.9* fold
same,IFN-γ fold-change relative to vehicle control,human PBMCs; [16],2.5 fold
same,IL-2 fold-change relative to vehicle control,human PBMCs; [16],2.3 fold
same,TNF fold-change relative to vehicle control,human PBMCs; [16],4.6 fold
same,IFN-γ fold-change relative to vehicle control,human PBMCs; [17],2.5* fold
same,IL-2 fold-change relative to vehicle control,human PBMCs; [17],2.3* fold
same,TNF fold-change relative to vehicle control,human PBMCs; [17],4.6* fold
same,"IFN-γ, MRS/Veh: ratio in the presence vs. the absence of MRS-1754",human PBMCs; donor 6,1.1
same,"IL-2, MRS/Veh: ratio in the presence vs. the absence of MRS-1754",human PBMCs; donor 6,1.4*
same,"TNF, MRS/Veh: ratio in the presence vs. the absence of MRS-1754",human PBMCs; donor 6,1.4*
same,"IFN-γ, ratio relative to vehicle control (Veh column)","human PBMCs; donor 6, no MRS",did not significantly increase
same,"IL-2, ratio relative to vehicle control (Veh column)","human PBMCs; donor 6, no MRS",1.7 fold
same,"TNF, ratio relative to vehicle control (Veh column)","human PBMCs; donor 6, no MRS",1.4 fold
same,"IFN-γ, ratio relative to vehicle control (Veh column)",human PBMCs; [18],1.2 fold
same,"IL-2, ratio relative to vehicle control (Veh column)",human PBMCs; [18],1.7* fold
same,"TNF, ratio relative to vehicle control (Veh column)",human PBMCs; [18],1.4* fold
same,"IFN-γ, ratio relative to vehicle control (MRS)",human PBMCs; donor 6,1.3* fold
same,"IL-2, ratio relative to vehicle control (MRS column)",human PBMCs; donor 6,1.4 fold
same,"TNF, ratio relative to vehicle control (MRS column)",human PBMCs; donor 6,2.1 fold
same,"IL-2, ratio relative to vehicle control (MRS column)","human PBMCs; donor 6, listed as Cmpd 10",2.3* fold
same,"TNF, ratio relative to vehicle control (MRS column)","human PBMCs; donor 6, listed as Cmpd 10",2.1* fold
same,synergy with ZM on GM-CSF (greater than the sum of the increases with each inhibitor alone),human PBMCs; [19],synergized with ZM
same,synergy with ZM on IFN-γ (greater than the sum of the increases with each inhibitor alone),human PBMCs; [19],synergized with ZM
same,synergy with ZM on IL-2 (greater than the sum of the increases with each inhibitor alone),human PBMCs; [19],synergized with ZM
same,synergy with ZM on TNF (greater than the sum of the increases with each inhibitor alone),human PBMCs; [19],synergized with ZM
same,"GM-CSF, ratio relative to vehicle control",human PBMCs; [20],3.6*
same,"IFN-γ, ratio relative to vehicle control",human PBMCs; [20],2.1*
same,"IL-2, ratio relative to vehicle control",human PBMCs; [20],1.7*
same,"TNF, ratio relative to vehicle control",human PBMCs; [20],2.2*
same,"GM-CSF, ratio relative to vehicle control",human PBMCs; [21],3.1*
same,"IFN-γ, ratio relative to vehicle control",human PBMCs; [21],2.2*
same,"IL-2, ratio relative to vehicle control",human PBMCs; [21],1.6*
same,"TNF, ratio relative to vehicle control",human PBMCs; [21],2.2*
same,"GM-CSF, ratio relative to vehicle control",human PBMCs; [22],6.2*
same,"IFN-γ, ratio relative to vehicle control",human PBMCs; [22],3.7*
same,"IL-2, ratio relative to vehicle control",human PBMCs; [22],2.0*
same,"TNF, ratio relative to vehicle control",human PBMCs; [22],3.6*
same,"GM-CSF, ratio relative to vehicle control",human PBMCs; [23],5.9*
same,"IFN-γ, ratio relative to vehicle control",human PBMCs; [23],3.7*
same,"IL-2, ratio relative to vehicle control",human PBMCs; [23],2.2*
same,"TNF, ratio relative to vehicle control",human PBMCs; [23],3.8*
same,Gs pathway in the presence of GPR174 (CRE-Luc reporter),GPR174; increasing concentrations of compound,inhibited
same,Fold decrease in Gs signaling activity,GPR174; pCRE-Luc reporter,5.1 fold
same,pEC50,"GPR174; pCRE-Luc reporter, multiple values = separate experiments",6.70 and 6.30
